We go through 32 compounds from patent publication US8445676B2, “Pyrrolotriazine kinase inhibitors” (Bristol-Myers Squibb Company, priority 2008, dated 2013).

This assay has as its target JAK2 (Homo sapiens, UniProt O60674). The assay can be described thus: JAK2 Tyrosine Kinase Assay. The class given is biochemical. As to conditions: list of named compounds; read-out: IC50 in the JAK2 assay. Here is the method:
JAK2 Tyrosine Kinase Assay
The assays were performed in V-bottom 384-well plates. […] The reaction was initiated by the combination of JAK2 with substrates and test compounds. The reaction was incubated at room temperature for 60 min. and terminated by adding 45 μl of 35 mM EDTA to each sample. The reaction mixture was analyzed on the Caliper LabChip 3000 by electrophoretic separation of the fluorescent substrate and phosphorylated product. […] Compounds were dissolved at 10 mM in dimethylsulfoxide (DMSO) and evaluated at eleven concentrations, each in duplicate. IC50 values were derived by non-linear regression analysis

Chain of JAK2 (O60674 whole entry): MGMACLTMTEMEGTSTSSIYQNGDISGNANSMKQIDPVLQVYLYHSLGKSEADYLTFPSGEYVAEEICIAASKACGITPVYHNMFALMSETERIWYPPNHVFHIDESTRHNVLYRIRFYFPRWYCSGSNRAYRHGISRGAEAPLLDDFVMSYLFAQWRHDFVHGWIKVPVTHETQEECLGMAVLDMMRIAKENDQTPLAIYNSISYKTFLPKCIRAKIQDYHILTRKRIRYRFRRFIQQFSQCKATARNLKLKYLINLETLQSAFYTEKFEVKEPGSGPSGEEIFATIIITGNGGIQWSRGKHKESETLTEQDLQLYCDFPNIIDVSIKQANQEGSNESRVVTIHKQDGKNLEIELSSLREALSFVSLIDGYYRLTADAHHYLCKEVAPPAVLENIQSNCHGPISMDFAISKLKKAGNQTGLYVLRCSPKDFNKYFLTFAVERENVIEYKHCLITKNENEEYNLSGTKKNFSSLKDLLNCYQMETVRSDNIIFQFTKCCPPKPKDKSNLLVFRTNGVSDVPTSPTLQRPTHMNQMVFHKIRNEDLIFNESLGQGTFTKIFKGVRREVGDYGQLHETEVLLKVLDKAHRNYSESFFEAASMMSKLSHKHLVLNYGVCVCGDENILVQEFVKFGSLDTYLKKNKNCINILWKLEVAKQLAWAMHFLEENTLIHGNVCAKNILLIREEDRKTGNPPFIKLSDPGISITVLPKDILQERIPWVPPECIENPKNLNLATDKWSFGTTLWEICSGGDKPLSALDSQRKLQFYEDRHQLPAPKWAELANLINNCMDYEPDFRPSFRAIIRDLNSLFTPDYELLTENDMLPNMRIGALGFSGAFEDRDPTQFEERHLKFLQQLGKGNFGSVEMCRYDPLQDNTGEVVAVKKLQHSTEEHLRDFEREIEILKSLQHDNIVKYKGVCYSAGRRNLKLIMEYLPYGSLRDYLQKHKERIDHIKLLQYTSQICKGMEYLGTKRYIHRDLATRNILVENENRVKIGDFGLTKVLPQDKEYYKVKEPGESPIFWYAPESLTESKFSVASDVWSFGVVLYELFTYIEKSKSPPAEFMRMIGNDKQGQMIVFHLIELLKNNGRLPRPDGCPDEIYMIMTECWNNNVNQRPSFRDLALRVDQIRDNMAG

On to `Cc1cc(Nc2nc(N3CCN(C(=O)C4(c5ccccc5)CCCC4)CC3)nn3cccc23)n[nH]1` [N-(5-methyl-1H-pyrazol-3-yl)-2-(4-((1-phenylcyclopentyl)carbonyl)-1-piperazinyl)pyrrolo[2,1-f][1,2,4]triazin-4-amine], for which the IC50 (commonly the concentration that gives 50% inhibition) is not above 5 nM.
With `Cc1cc(Nc2nc(N3CCN(C(=O)c4ccc(C(F)(F)F)cc4)CC3)nn3cccc23)n[nH]1` [N-(5-methyl-1H-pyrazol-3-yl)-2-(4-(4-(trifluoromethyl)benzoyl)-1-piperazinyl)pyrrolo[2,1-f][1,2,4]triazin-4-amine] the figure was not above 5 nM; with `Cc1cc(Nc2nc(N3CCN(C(=O)C(O)c4c(F)cccc4F)CC3)nn3cccc23)n[nH]1` (centres unmarked) [1-(2,6-difluorophenyl)-2-(4-(4-((5-methyl-1H-pyrazol-3-yl)amino)pyrrolo[2,1-f][1,2,4]triazin-2-yl)-1-piperazinyl)-2-oxoethanol], not above 5 nM; with `Cc1cc(Nc2nc(N3CCN(C(=O)c4cccn4C)CC3)nn3cccc23)n[nH]1` [N-(5-methyl-1H-pyrazol-3-yl)-2-(4-((1-methyl-1H-pyrrol-2-yl)carbonyl)-1-piperazinyl)pyrrolo[2,1-f][1,2,4]triazin-4-amine], not above 5 nM.
Under `Cc1cc(Nc2nc(N3CCN(C(=O)c4ccccc4[N+](=O)[O-])CC3)nn3cccc23)n[nH]1` [N-(5-methyl-1H-pyrazol-3-yl)-2-(4-(2-nitrobenzoyl)-1-piperazinyl)pyrrolo[2,1-f][1,2,4]triazin-4-amine] stands not above 5 nM; under `Cc1cc(Nc2nc(N3CCN(C(=O)Cc4ccccc4)CC3)nn3cccc23)n[nH]1` [N-(5-methyl-1H-pyrazol-3-yl)-2-(4-(phenylacetyl)-1-piperazinyl)pyrrolo[2,1-f][1,2,4]triazin-4-amine], not above 5 nM.
Regarding `Cc1cc(Nc2nc(N3CCN(C(=O)C4(NC(=O)OC(C)(C)C)CCc5ccccc54)CC3)nn3cccc23)n[nH]1` (centres unmarked) [tert-butyl (1-((4-(4-((5-methyl-1H-pyrazol-3-yl)amino)pyrrolo[2,1-f][1,2,4]triazin-2-yl)-1-piperazinyl)carbonyl)-2,3-dihydro-1H-inden-1-yl)carbamate], the IC50 was not above 5 nM.
Under `CC(=O)Nc1ccccc1C(=O)N1CCN(c2nc(Nc3cc(C)[nH]n3)c3cccn3n2)CC1` [N-(2-((4-(4-((5-methyl-1H-pyrazol-3-yl)amino)pyrrolo[2,1-f][1,2,4]triazin-2-yl)-1-piperazinyl)carbonyl)phenyl)acetamide] stands not above 5 nM; under `Cc1cc(Nc2nc(N3CCN(C(=O)c4cccc(Cl)c4)CC3)nn3cccc23)n[nH]1` [2-(4-(3-chlorobenzoyl)-1-piperazinyl)-N-(5-methyl-1H-pyrazol-3-yl)pyrrolo[2,1-f][1,2,4]triazin-4-amine], not above 5 nM; under `Cc1cc(Nc2nc(N3CCN(C(=O)c4ccc(OC(F)(F)F)cc4)CC3)nn3cccc23)n[nH]1` [N-(5-methyl-1H-pyrazol-3-yl)-2-(4-(4-(trifluoromethoxy)benzoyl)-1-piperazinyl)pyrrolo[2,1-f][1,2,4]triazin-4-amine], not above 5 nM.
Under `Cc1cc(Nc2nc(N3CCN(C(=O)C4(C(F)(F)F)CCC4)CC3)nn3cccc23)n[nH]1` [N-(5-methyl-1H-pyrazol-3-yl)-2-(4-((1-(trifluoromethyl)cyclobutyl)carbonyl)-1-piperazinyl)pyrrolo[2,1-f][1,2,4]triazin-4-amine] stands not above 5 nM; under `Cc1cc(Nc2nc(N3CCN(C(=O)c4ccccc4C(F)(F)F)CC3)nn3cccc23)n[nH]1` [N-(5-methyl-1H-pyrazol-3-yl)-2-(4-(2-(trifluoromethyl)benzoyl)-1-piperazinyl)pyrrolo[2,1-f][1,2,4]triazin-4-amine], not above 5 nM.
Under `Cc1cc(Nc2nc(N3CCN(C(=O)Cc4ccccc4Br)CC3)nn3cccc23)n[nH]1` [2-(4-((2-bromophenyl)acetyl)-1-piperazinyl)-N-(5-methyl-1H-pyrazol-3-yl)pyrrolo[2,1-f][1,2,4]triazin-4-amine] stands not above 5 nM.
With `Cc1ccc(C(=O)N2CCN(c3nc(Nc4cc(C)[nH]n4)c4cccn4n3)CC2)cn1` [N-(5-methyl-1H-pyrazol-3-yl)-2-(4-((6-methyl-3-pyridinyl)carbonyl)-1-piperazinyl)pyrrolo[2,1-f][1,2,4]triazin-4-amine], the IC50 was not above 5 nM.
Regarding `COc1ccc(C(=O)N2CCN(c3nc(Nc4cc(C)[nH]n4)c4cccn4n3)CC2)cc1` [2-(4-(4-methoxybenzoyl)-1-piperazinyl)-N-(5-methyl-1H-pyrazol-3-yl)pyrrolo[2,1-f][1,2,4]triazin-4-amine], the IC50 is not above 5 nM.
Under `Cc1cc(Nc2nc(N3CCN(C(=O)c4ccccc4OC(F)(F)F)CC3)nn3cccc23)n[nH]1` [N-(5-methyl-1H-pyrazol-3-yl)-2-(4-(2-(trifluoromethoxy)benzoyl)-1-piperazinyl)pyrrolo[2,1-f][1,2,4]triazin-4-amine] stands not above 5 nM; under `Cc1cc(Nc2nc(N3CCN(C(=O)c4ccccc4COc4ccccc4)CC3)nn3cccc23)n[nH]1` [N-(5-methyl-1H-pyrazol-3-yl)-2-(4-(2-(phenoxymethyl)benzoyl)-1-piperazinyl)pyrrolo[2,1-f][1,2,4]triazin-4-amine], not above 5 nM; under `Cc1cc(Nc2nc(N3CCN(C(=O)[C@@H](O)c4ccccc4)CC3)nn3cccc23)n[nH]1` [(1S)-2-(4-(4-((5-methyl-1H-pyrazol-3-yl)amino)pyrrolo[2,1-f][1,2,4]triazin-2-yl)-1-piperazinyl)-2-oxo-1-phenylethanol], not above 5 nM.
Turning to `Cc1cc(Nc2nc(N3CCN(C(=O)[C@H](O)CCc4ccccc4)CC3)nn3cccc23)n[nH]1` [(2R)-1-(4-(4-((5-methyl-1H-pyrazol-3-yl)amino)pyrrolo[2,1-f][1,2,4]triazin-2-yl)-1-piperazinyl)-1-oxo-4-phenyl-2-butanol], the IC50 is not above 5 nM.
Under `Cc1cc(Nc2nc(N3CCN(C(=O)c4cccnc4Cl)CC3)nn3cccc23)n[nH]1` [2-(4-((2-chloro-3-pyridinyl)carbonyl)-1-piperazinyl)-N-(5-methyl-1H-pyrazol-3-yl)pyrrolo[2,1-f][1,2,4]triazin-4-amine] stands not above 5 nM; under `Cc1cc(Nc2nc(N3CCN(C(=O)CC4CCCCC4)CC3)nn3cccc23)n[nH]1` [2-(4-(cyclohexylacetyl)-1-piperazinyl)-N-(5-methyl-1H-pyrazol-3-yl)pyrrolo[2,1-f][1,2,4]triazin-4-amine], not above 5 nM.
Under `Cc1cc(Nc2nc(N3CCN(C(=O)C(O)c4ccccc4F)CC3)nn3cccc23)n[nH]1` (centres unmarked) [1-(2-fluorophenyl)-2-(4-(4-((5-methyl-1H-pyrazol-3-yl)amino)pyrrolo[2,1-f][1,2,4]triazin-2-yl)-1-piperazinyl)-2-oxoethanol] stands not above 5 nM; under `Cc1cc(Nc2nc(N3CCN(C(=O)c4ccoc4)CC3)nn3cccc23)n[nH]1` [2-(4-(3-furoyl)-1-piperazinyl)-N-(5-methyl-1H-pyrazol-3-yl)pyrrolo[2,1-f][1,2,4]triazin-4-amine], not above 5 nM.
As for `Cc1cc(Nc2nc(N3CCN(C(=O)c4cc(C)oc4C)CC3)nn3cccc23)n[nH]1` [2-(4-(2,5-dimethyl-3-furoyl)-1-piperazinyl)-N-(5-methyl-1H-pyrazol-3-yl)pyrrolo[2,1-f][1,2,4]triazin-4-amine], the IC50 is not above 5 nM.
Under `CCOc1cc(F)c(CC(=O)N2CCN(c3nc(Nc4cc(C)[nH]n4)c4cccn4n3)CC2)c(F)c1` [2-(4-((4-ethoxy-2,6-difluorophenyl)acetyl)-1-piperazinyl)-N-(5-methyl-1H-pyrazol-3-yl)pyrrolo[2,1-f][1,2,4]triazin-4-amine] stands not above 5 nM.
Under `CC(=O)NC(C(=O)N1CCN(c2nc(Nc3cc(C)[nH]n3)c3cccn3n2)CC1)c1ccccc1` (centres unmarked) [N-(2-(4-(4-((5-methyl-1H-pyrazol-3-yl)amino)pyrrolo[2,1-f][1,2,4]triazin-2-yl)-1-piperazinyl)-2-oxo-1-phenylethyl)acetamide] stands not above 5 nM; under `Cc1cc(Nc2nc(N3CCN(C(=O)c4ccc(Cl)cc4Cl)CC3)nn3cccc23)n[nH]1` [2-(4-(2,4-dichlorobenzoyl)-1-piperazinyl)-N-(5-methyl-1H-pyrazol-3-yl)pyrrolo[2,1-f][1,2,4]triazin-4-amine], not above 5 nM.
With `COc1cccc(C(=O)N2CCN(c3nc(Nc4cc(C)[nH]n4)c4cccn4n3)CC2)c1` [2-(4-(3-methoxybenzoyl)-1-piperazinyl)-N-(5-methyl-1H-pyrazol-3-yl)pyrrolo[2,1-f][1,2,4]triazin-4-amine] the figure was not above 5 nM.
Regarding `Cc1cc(Nc2nc(N3CCN(C(=O)c4ccccc4C#N)CC3)nn3cccc23)n[nH]1` [2-((4-(4-((5-methyl-1H-pyrazol-3-yl)amino)pyrrolo[2,1-f][1,2,4]triazin-2-yl)-1-piperazinyl)carbonyl)benzonitrile], the 50% inhibitory concentration (IC50) is not above 5 nM.
With `Cc1cc(Nc2nc(N3CCN(C(=O)c4ncco4)CC3)nn3cccc23)n[nH]1` [N-(5-methyl-1H-pyrazol-3-yl)-2-(4-(1,3-oxazol-2-ylcarbonyl)-1-piperazinyl)pyrrolo[2,1-f][1,2,4]triazin-4-amine], the IC50 is not above 5 nM.
Consider `Cc1cc(Nc2nc(N3CCN(C(=O)Cc4ccccc4C(F)(F)F)CC3)nn3cccc23)n[nH]1` [N-(5-methyl-1H-pyrazol-3-yl)-2-(4-((2-(trifluoromethyl)phenyl)acetyl)-1-piperazinyl)pyrrolo[2,1-f][1,2,4]triazin-4-amine], for which the IC50 was not above 5 nM.
With `Cc1cc(Nc2nc(N3CCN(C(=O)c4cccc(C#N)c4)CC3)nn3cccc23)n[nH]1` [3-((4-(4-((5-methyl-1H-pyrazol-3-yl)amino)pyrrolo[2,1-f][1,2,4]triazin-2-yl)-1-piperazinyl)carbonyl)benzonitrile] the figure was not above 5 nM.
